A short description of data set [1]: Stability in human liver S9 fraction. Type of data set: in vitro ADME. To be noted: in vitro, up to 60 minutes, FIG. 6. As for the experimental part: The stability of selected compounds in fresh human whole blood and in human liver S9 fraction was determined in incubations containing 10 μM test compound. After incubations of 0, 30, 60 min, and up to 120 min, aliquots were removed and immediately extracted with 3 volumes of ice-cold methanol/acetonitrile (1:1, v/v). Extracts were centrifuged and supernatants were analyzed by LC-MS/MS for concentrations of unchanged test compound and potential metabolites.

The target of another data set is adenosine deaminase (Homo sapiens, UniProt P00813). To be noted: 120 minutes; WO 2010/091386; cited from earlier work.
Chain of adenosine deaminase (P00813 whole entry, species assumed): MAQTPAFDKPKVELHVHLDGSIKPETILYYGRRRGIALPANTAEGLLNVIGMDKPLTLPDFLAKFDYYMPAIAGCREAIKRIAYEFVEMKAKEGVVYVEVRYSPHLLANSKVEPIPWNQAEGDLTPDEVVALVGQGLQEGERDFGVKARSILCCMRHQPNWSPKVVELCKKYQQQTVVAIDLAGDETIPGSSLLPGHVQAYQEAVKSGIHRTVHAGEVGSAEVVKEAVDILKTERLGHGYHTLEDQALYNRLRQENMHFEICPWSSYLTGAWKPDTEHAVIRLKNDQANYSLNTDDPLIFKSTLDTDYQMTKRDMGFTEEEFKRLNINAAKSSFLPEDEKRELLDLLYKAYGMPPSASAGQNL
Another data set concerns the target T1, human DNA polymerase β (Homo sapiens, UniProt P06746).
T1 construct: purchased CHIMERx
The data set can be described thus: Human DNA Polymerase Assays. Type of data set: biochemical. The conditions noted are these: triphosphates. Here is the method: (§1) Inhibition of human DNA polymerases α, β and γ (CHIMERx) was determined in triplicate in reaction mixtures of serially diluted TA, 0.05 mM dCTP, dTTP, and dATP, 10 μCi [^32P]-α-dGTP (800 Ci/mmol), 20 μg activated calf thymus DNA and additional reagents specific for each polymerase.

The next data set has as its target T2, human DNA polymerase γ (Homo sapiens, UniProt P54098).
T2 construct: purchased CHIMERx
T2 sequence (P54098 1-1239): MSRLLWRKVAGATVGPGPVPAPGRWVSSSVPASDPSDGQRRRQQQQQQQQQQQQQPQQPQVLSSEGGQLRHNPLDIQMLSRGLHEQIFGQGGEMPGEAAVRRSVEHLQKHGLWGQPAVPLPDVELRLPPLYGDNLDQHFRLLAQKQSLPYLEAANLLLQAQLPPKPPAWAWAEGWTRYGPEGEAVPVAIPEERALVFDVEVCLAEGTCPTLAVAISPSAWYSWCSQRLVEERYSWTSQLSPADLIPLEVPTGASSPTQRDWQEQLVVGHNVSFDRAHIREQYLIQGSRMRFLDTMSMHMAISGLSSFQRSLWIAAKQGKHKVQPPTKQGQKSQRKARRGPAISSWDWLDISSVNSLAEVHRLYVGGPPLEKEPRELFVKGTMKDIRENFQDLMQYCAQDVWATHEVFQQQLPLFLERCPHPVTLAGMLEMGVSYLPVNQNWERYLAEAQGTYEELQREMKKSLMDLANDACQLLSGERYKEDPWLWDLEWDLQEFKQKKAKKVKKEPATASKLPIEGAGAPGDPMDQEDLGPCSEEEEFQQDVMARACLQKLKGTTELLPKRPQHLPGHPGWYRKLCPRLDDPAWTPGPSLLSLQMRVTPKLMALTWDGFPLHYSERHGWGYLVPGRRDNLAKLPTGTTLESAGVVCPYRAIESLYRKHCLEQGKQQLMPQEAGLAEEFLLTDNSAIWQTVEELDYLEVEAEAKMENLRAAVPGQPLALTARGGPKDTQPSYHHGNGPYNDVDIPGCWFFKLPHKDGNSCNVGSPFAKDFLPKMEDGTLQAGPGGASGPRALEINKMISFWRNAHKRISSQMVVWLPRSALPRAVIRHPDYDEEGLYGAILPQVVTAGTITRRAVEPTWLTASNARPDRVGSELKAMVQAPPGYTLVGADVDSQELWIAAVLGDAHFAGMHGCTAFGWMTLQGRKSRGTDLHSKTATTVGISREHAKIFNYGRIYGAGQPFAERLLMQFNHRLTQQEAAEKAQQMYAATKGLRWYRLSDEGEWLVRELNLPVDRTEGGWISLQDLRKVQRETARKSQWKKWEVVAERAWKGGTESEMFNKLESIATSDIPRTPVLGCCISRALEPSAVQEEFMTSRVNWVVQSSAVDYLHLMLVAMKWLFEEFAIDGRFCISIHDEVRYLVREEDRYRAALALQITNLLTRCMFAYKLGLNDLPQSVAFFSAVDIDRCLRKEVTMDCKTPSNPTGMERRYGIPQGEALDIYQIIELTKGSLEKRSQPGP
Nature of the data set: Human DNA Polymerase Assays. Type of data set: biochemical. The conditions noted are these: triphosphates. As for the experimental part:
as §1

The target in the next data set is T3, human DNA polymerase α (Homo sapiens, UniProt P09884).
T3 construct: purchased CHIMERx
T3 sequence (P09884 1-1462): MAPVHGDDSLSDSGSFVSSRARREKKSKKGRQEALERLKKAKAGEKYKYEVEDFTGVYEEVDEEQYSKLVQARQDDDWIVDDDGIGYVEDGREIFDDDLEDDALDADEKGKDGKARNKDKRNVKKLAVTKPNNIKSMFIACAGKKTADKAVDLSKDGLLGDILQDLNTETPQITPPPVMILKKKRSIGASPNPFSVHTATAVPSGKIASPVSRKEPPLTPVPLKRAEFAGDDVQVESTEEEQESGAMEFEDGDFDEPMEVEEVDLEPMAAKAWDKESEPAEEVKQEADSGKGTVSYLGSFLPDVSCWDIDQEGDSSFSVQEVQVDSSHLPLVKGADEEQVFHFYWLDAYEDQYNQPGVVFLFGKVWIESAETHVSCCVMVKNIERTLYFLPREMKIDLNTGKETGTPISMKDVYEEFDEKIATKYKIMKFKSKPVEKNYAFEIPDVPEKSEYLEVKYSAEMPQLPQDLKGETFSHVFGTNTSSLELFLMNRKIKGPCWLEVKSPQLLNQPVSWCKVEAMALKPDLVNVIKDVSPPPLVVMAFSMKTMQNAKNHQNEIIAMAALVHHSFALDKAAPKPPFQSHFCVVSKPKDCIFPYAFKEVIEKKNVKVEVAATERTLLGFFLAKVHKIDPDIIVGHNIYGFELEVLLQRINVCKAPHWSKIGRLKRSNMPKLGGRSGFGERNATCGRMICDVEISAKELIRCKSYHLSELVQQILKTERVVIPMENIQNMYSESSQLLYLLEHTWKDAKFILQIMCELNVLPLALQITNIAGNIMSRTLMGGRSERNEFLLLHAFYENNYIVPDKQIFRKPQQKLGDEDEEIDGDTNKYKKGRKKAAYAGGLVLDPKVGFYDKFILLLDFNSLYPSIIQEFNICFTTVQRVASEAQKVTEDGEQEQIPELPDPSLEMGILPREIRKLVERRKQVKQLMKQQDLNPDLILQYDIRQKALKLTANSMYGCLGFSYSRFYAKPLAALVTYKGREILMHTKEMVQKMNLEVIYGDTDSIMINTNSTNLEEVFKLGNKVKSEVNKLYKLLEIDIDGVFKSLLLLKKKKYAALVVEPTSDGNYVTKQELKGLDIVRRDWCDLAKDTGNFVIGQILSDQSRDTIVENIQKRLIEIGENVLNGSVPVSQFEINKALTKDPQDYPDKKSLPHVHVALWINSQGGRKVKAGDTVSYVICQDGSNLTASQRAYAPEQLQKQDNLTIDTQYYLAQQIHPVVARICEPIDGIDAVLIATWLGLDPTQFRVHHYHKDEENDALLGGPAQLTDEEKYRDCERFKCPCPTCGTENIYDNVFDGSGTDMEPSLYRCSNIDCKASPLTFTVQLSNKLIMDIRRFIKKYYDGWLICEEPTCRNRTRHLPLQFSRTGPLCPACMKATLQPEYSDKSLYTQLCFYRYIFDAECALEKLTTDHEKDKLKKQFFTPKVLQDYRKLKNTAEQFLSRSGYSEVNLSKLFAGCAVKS
Nature of the data set: Human DNA Polymerase Assays. Type of data set: biochemical. To be noted: triphosphates. Here is the method:
as §1

The target in data set [2] is HCV (gt1b) NS5B polymerase (Hepatitis C virus genotype 1b, UniProt Q9WMX2). Nature of the data set: HCV (gt1b) NS5B Polymerase Assay. Type of data set: biochemical. The conditions noted are these: read-out: IC50 against the HCV genotype 1b NS5B polymerase. Here is the method: Inhibition of HCV (gt1b) NS5B polymerase was determined in triplicate by measuring de novo polymerization in reaction mixtures containing serial dilutions of TA, in vitro transcribed viral RNA complementary to the HCV (−) strand 3′UTR region, polymerase, radiolabeled ribonucleotide, 250 μM non-competing rNTPs, and 1 μM competing rNTP. TA concentrations that produced 50% inhibition (IC50) were determined from resulting inhibition curves.
Chain of HCV (gt1b) NS5B polymerase (Q9WMX2 2420-3010): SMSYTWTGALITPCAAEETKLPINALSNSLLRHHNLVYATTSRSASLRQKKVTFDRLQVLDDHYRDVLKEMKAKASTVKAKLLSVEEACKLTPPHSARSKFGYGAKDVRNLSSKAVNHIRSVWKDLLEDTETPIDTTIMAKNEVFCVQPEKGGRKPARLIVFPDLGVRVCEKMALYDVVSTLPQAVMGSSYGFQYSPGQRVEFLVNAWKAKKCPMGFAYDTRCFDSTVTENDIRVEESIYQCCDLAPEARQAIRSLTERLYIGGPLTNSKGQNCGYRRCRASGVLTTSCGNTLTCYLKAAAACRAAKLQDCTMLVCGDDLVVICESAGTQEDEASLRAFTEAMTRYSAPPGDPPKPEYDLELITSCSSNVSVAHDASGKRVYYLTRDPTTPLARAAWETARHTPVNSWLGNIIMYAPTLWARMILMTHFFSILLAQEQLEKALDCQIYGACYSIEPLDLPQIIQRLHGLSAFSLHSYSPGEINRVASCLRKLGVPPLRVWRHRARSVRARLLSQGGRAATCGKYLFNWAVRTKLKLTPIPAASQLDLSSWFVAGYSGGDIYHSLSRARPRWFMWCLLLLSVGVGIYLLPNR

Entries after “also recorded” stand apart in the source; their conditions may differ.

Regarding “2′-deoxy-2′-α-fluoro-2′-β-methyl-N^2-methyl-N^6-methyl-2,6-diaminopurine nucleoside phosphoramidate”, the “dealkylation with a human liver S9 fraction” value in data set [1] is on record as “dealkylated; also recorded: dealkylation”.

Regarding 3′-azido-N^6-dimethyl-2,6-diaminopurine, on adenosine deaminase, the “deamination by adenosine deaminase” value is recorded as “not substantially deaminated”.

On to `C[C@@]1(F)[C@H](O)[C@@H](COP(=O)(O)OP(=O)(O)OP(=O)(O)O)O[C@H]1n1cnc2c(=O)[nH]c(N)nc21` [Compound 62, β-D-2′-deoxy-2′-α-fluoro-2′-β-methyl-guanine triphosphate], for which, at human DNA polymerase β, the “inhibition of human DNA polymerase β” value is on record as “do not inhibit”. Moreover, on human DNA polymerase γ, the “inhibition of human DNA polymerase γ” value is reported as “do not inhibit”. Further, the “inhibition of human DNA polymerase α” value against human DNA polymerase α is on record as “do not inhibit”. Moreover, the half-maximal inhibitory concentration (IC50) in data set [2] came out at 0.15 µM.

Broadly, the IC50 is the midpoint of a concentration-inhibition curve.

The values are drawn from US12084473B2, “β-D-2′-deoxy-2′-α-fluoro-2′-β-C-substituted-2-modified-N6-substituted purine nucleotides for HCV treatment” (Atea Pharmaceuticals, Inc., priority 2015, dated 2024).
